Test results: patent US6162463A (priority 1998, dated 2000)
Where a name gives a salt, the structure may show the parent alone.

Columns and labels:
clinical = conditions: po, 120 mg
Description: (§1) An interval of approximately 5-7 days elapsed between the administration of each agent tested in this example.
(§2) (TM) containing EDTA (ethylenediamine tetraacetic acid) as an anticoagulant just before administration of the test agent; this sample represented the zero time sample. The blood sample was centrifuged for 15 minutes under conditions known to those skilled in the art. The plasma portion of each sample was harvested, frozen and stored at minus 70 degrees Celsius until analysis. At timed intervals after administration, additional blood samples were withdrawn and similarly treated.

[1] = oral, 120 mg diltiazem hydrochloride, after administration; FIG. 6
Description: as §1, §2

angina pectoris = conditions: cited from earlier work
[2] = cited from earlier work

| Tmax (clinical; human, plasma) | Tmax (clinical; in vivo) | time by which most of the quick release preparation is gone (plasma) [1] | Structure (SMILES) | incidence of side effects compared with other calcium channel blockers (angina pectoris; human, in vivo) | safety and efficacy in stable and unstable angina pectoris (angina pectoris; reference 1) | decrease in bioavailability by first-pass metabolism (loss) ([2]; oral) | plasma half-life ([2]; references 17, 19) |
| --- | --- | --- | --- | --- | --- | --- | --- |
| 1 to 2 h | 1 to 2 h | 5 to 6 h | COc1ccc([C@@H]2Sc3ccccc3N(CCN(C)C)C(=O)[C@@H]2OC(C)=O)cc1 [diltiazem hydrochloride] | – | – | – | – |
| – | – | – | COc1ccc([C@@H]2Sc3ccccc3N(CCN(C)C)C(=O)[C@@H]2OC(C)=O)cc1 [diltiazem] | lower incidence of side effects | safe and effective treatment for both stable and unstable angina pectoris | ≤ 60% | 2 to 6 h |
